Measured values published in publication PMC11584656, “Viral sequence determines HLA-E-restricted T cell recognition of hepatitis B surface antigen” (Nature Communications, 2024).
Where two headings read alike, the source gives them in different places.

Tests used:
HLA-E*01:03 [1] = molecular target: T1, HLA-E*01:03 (Homo sapiens, UniProt P13747); assay type: binding; conditions: for Tm (°C): Figure 1a source data, 60:1 peptide excess; for Thermal stability Tm (°C): SYPRO Orange, 22-95 °C at 1 °C/min, mean ± SD of triplicates, SD
[2] = molecular target: recombinant human HLA-E*01:03 (heavy chain with β2m), soluble, refolded; experiment: thermal shift assay (refolded pHLA-E*01:03 complexes); Tm of the same pHLA-E*01:03 complexes as in the SPR stability assay (Fig. 1c); triplicate
[3] = molecular target: recombinant human HLA-E*01:03 (heavy chain with β2m), soluble, refolded; experiment: SPR
[4] = system: THP-1-E cells (HLA-E*01:01) pulsed with peptide; experiment: IFN-γ ELISpot cross-reactivity screen with HLA-E binding peptides; assay type: cell-based, human; conditions: 1 nM ImmTAV, THP-1-E cells pulsed with 10 μg/mL peptide, average of 2 HBV-naïve donor PBMC each in triplicate
[5] = system: THP-1-E cells (HLA-E*01:03) pulsed with peptide; experiment: as above; assay type: cell-based, human; conditions: 1 nM ImmTAV, THP-1-E cells pulsed with 10 μg/mL peptide, average of 2 HBV-naïve donor PBMC each in triplicate
[6] = molecular target: single chain β2m-HLA-E*01:03 on transduced cells
[7] = molecular target: recombinant human HLA-E*01:03 (heavy chain with β2m), soluble, refolded; experiment: thermal shift assay (peptide screen)
[8] = molecular target: single chain β2m-HLA-E*01:01 on transduced cells
HLA-E*01:03 [9] = molecular target: T1, HLA-E*01:03; assay type: binding; design: made in house; conditions: refolded complexes
HLA-E*01:03 [10] = molecular target: T1, HLA-E*01:03; experiment: pHLA-E stability (t1/2) by SPR monitoring ILT2 binding; design: made in house; conditions: SPR 25 °C
[11] = system: K562 cells transduced with single chain β2m-HLA-E*01:01; experiment: K562 cell pulsing assay, HLA-E surface upregulation (3D12, flow cytometry); assay type: cell-based, human
[12] = system: K562 cells transduced with single chain β2m-HLA-E*01:03; experiment: as above; assay type: cell-based, human

Substance: CIPIPSSWAF [HBV Env peptide 312-321]
- Tm (°C) (HLA-E*01:03 [1]; replicate 1): 42.2 °C
- Tm (°C) (HLA-E*01:03 [1]; replicate 2): 41.7 °C
- Tm (°C) (HLA-E*01:03 [1]; replicate 3): 42.2 °C
- Thermal stability Tm (°C) (HLA-E*01:03 [1]): 42.1±0.3 °C

Substance: Cw3 signal peptide
- Tm of the peptide-HLA-E complex [2]: 49 °C
- t1/2 of the peptide-HLA-E complex [3]: 2 h

Substance: VMPPRTLLL [Leader A80]
- HLA-E*01:01 INF-γ release (SFU ± SD) [4]: 44.8±8.6 SFU
- HLA-E*01:03 INF-γ release (SFU ± SD) [5]: 61.1±14.3 SFU

Substance: VMAPRALLL [Leader Cw7]
- HLA-E*01:01 INF-γ release (SFU ± SD) [4]: 30.3±12.9 SFU
- HLA-E*01:03 INF-γ release (SFU ± SD) [5]: 44.1±22.1 SFU

Substance: LLPRRGPRL [HCV Core]
- HLA-E*01:01 INF-γ release (SFU ± SD) [4]: 61.1±21.8 SFU
- HLA-E*01:03 INF-γ release (SFU ± SD) [5]: 60±30.1 SFU

Substance: IMAPRTLVL [Leader A34]
- HLA-E*01:01 INF-γ release (SFU ± SD) [4]: 55.5±6.8 SFU
- HLA-E*01:03 INF-γ release (SFU ± SD) [5]: 54.5±18.9 SFU

Substance: SSWAFARFL [HBV Env peptide 317-325]
- Tm (°C) (HLA-E*01:03 [1]; replicate 1): 40.7 °C
- Tm (°C) (HLA-E*01:03 [1]; replicate 2): 40.6 °C
- Tm (°C) (HLA-E*01:03 [1]; replicate 3): 40.7 °C
- Thermal stability Tm (°C) (HLA-E*01:03 [1]): 40.7±0.1 °C

Substance: A1 signal peptide
- Tm of the peptide-HLA-E complex [2]: 49 °C
- t1/2 of the peptide-HLA-E complex [3]: 2 h

Substance: VTAPRTLLL [Leader B13]
- HLA-E*01:01 INF-γ release (SFU ± SD) [4]: 53±13.4 SFU
- HLA-E*01:03 INF-γ release (SFU ± SD) [5]: 56±17.9 SFU

Substance: FIIFLFILL [HBV Env peptide 243-251]
- Tm (°C) (HLA-E*01:03 [1]; replicate 1): 38.9 °C
- Tm (°C) (HLA-E*01:03 [1]; replicate 2): 39.2 °C
- Tm (°C) (HLA-E*01:03 [1]; replicate 3): 39.5 °C
- Thermal stability Tm (°C) (HLA-E*01:03 [1]): 39.3±0.3 °C

Substance: RWMCLRRFI [HBV Env peptide 236-244]
- Tm (°C) (HLA-E*01:03 [1]; replicate 1): 37.9 °C
- Tm (°C) (HLA-E*01:03 [1]; replicate 2): 37.9 °C
- Tm (°C) (HLA-E*01:03 [1]; replicate 3): 38.4 °C
- Thermal stability Tm (°C) (HLA-E*01:03 [1]): 38.2±0.3 °C

Substance: QMRPVSRVL [Hsp60 signal peptide]
- HLA-E*01:01 INF-γ release (SFU ± SD) [4]: 43.8±6.36 SFU
- HLA-E*01:03 INF-γ release (SFU ± SD) [5]: 41.8±9.9 SFU

Substance: ILQRFLPLI [Mimetic peptide 2]
- HLA-E*01:01 INF-γ release (SFU ± SD) [4]: 60.5±20.8 SFU
- HLA-E*01:03 INF-γ release (SFU ± SD) [5]: 48.6±29.1 SFU

Substance: VMAPRTLFL [Leader G]
- HLA-E*01:01 INF-γ release (SFU ± SD) [4]: 44.8±19.8 SFU
- HLA-E*01:03 INF-γ release (SFU ± SD) [5]: 48.1±19.7 SFU

Substance: VTAPRTVLL [Leader B15]
- HLA-E*01:01 INF-γ release (SFU ± SD) [4]: 42.8±13.4 SFU
- HLA-E*01:03 INF-γ release (SFU ± SD) [5]: 40±17.4 SFU

Substance: VMAPRTVLL [Leader B7]
- HLA-E*01:01 INF-γ release (SFU ± SD) [4]: 43.3±7.8 SFU
- HLA-E*01:03 INF-γ release (SFU ± SD) [5]: 48.7±7.3 SFU

Substance: HBV Env_(371-379) peptide …
- Tm of the peptide-HLA-E complex [2]: 44 °C
- peptide concentration at which IFN-γ responses (ELISPOT) were detected: peptide titrated on THP-1-E*01:03 cells, PBMC, 1 nM a09b08 ImmTAV [6]: 8.7 µg/mL
- t1/2 of the peptide-HLA-E complex [3]: 0.112 h
- Tm of the peptide-HLA-E complex [7]: 47.1 °C

Substance: HBV Env_(371-379) (S3N) peptide …
- Tm of the peptide-HLA-E complex [2]: 47 °C
- peptide concentration at which IFN-γ responses (ELISPOT) were detected: peptide titrated on THP-1-E*01:03 cells, PBMC, 1 nM a09b08 ImmTAV [6]: 0.2 µg/mL
- peptide concentration at which IFN-γ responses (ELISPOT) were detected: peptide titrated on THP-1-E*01:01 cells, PBMC, 1 nM a09b08 ImmTAV [8]: 4.9 µg/mL
- t1/2 of the peptide-HLA-E complex [3]: 0.658 h

Substance: ILPSDAPVL [MTB MmmpL875-83]
- HLA-E*01:01 INF-γ release (SFU ± SD) [4]: 52.6±17.39 SFU
- HLA-E*01:03 INF-γ release (SFU ± SD) [5]: 54.8±17.4 SFU

Substance: ALSWRLPLL [Mimetic peptide 1]
- HLA-E*01:01 INF-γ release (SFU ± SD) [4]: 61.6±21.8 SFU
- HLA-E*01:03 INF-γ release (SFU ± SD) [5]: 54.1±15.6 SFU

Substance: VMAPRTLVL [Leader A2]
- HLA-E*01:01 INF-γ release (SFU ± SD) [4]: 50.5±6.8 SFU
- HLA-E*01:03 INF-γ release (SFU ± SD) [5]: 64.5±9.8 SFU

Substance: GMLPVCPLL [HBV Env peptide 265-273]
- Tm (°C) (HLA-E*01:03 [1]; replicate 1): 45.1 °C
- Tm (°C) (HLA-E*01:03 [1]; replicate 2): 45.1 °C
- Tm (°C) (HLA-E*01:03 [1]; replicate 3): 45.5 °C
- Thermal stability Tm (°C) (HLA-E*01:03 [1]): 45.3±0.3 °C

Substance: VMAPRTLLL [Leader A1]
- HLA-E*01:01 INF-γ release (SFU ± SD) [4]: 67.8±14.9 SFU
- pHLA-E*01:03 Tm (HLA-E*01:03 [9]; thermal shift assay, mean ± SD of triplicates): 49 °C
- pHLA-E*01:03 (Tm °C) (HLA-E*01:03 [9]; first well of three): 49.62 °C
- pHLA-E*01:03 (Tm °C) (HLA-E*01:03 [9]; second well of three): 48.27 °C
- pHLA-E*01:03 (Tm °C) (HLA-E*01:03 [9]; third well of three): 48.53 °C
- HLA-E*01:03 INF-γ release (SFU ± SD) [5]: 65.6±28.4 SFU
- pHLA-E*01:03 (t1/2 min) (HLA-E*01:03 [10]; Run 1): 105 min
- pHLA-E*01:03 (t1/2 min) (HLA-E*01:03 [10]; Run 2): 125 min
- pHLA-E*01:03 (t1/2 min) (HLA-E*01:03 [10]; Run 3): 127 min
- pHLA-E*01:03 t1/2 (HLA-E*01:03 [10]; rounded value): 2 h

Substance: VMAPQALLL [Leader Cw16]
- HLA-E*01:01 INF-γ release (SFU ± SD) [4]: 33.3±16.4 SFU
- HLA-E*01:03 INF-γ release (SFU ± SD) [5]: 49.1±19.2 SFU

Substance: RLPAKAPLL [Mtb RLPA]
- HLA-E*01:01 INF-γ release (SFU ± SD) [4]: 67.1±12.6 SFU
- cell surface HLA-E expression after peptide pulsing [11]: increased cell surface HLA-E expression
- HLA-E*01:03 INF-γ release (SFU ± SD) [5]: 72.1±12.8 SFU
- cell surface HLA-E expression after peptide pulsing [12]: increased cell surface HLA-E expression
